One may read the IC50 as the point on the concentration scale where inhibition reaches its midpoint. The low end stands for greater potency, the high end for weaker potency.

This experiment deals with KMS.12.BM cells. Nature of the experiment: KMS.12.BM cell viability assay (Cell Titer-GLO, ATP quantitation). The class given is cell-based. The settings on record: KMS-12-BM, 72 h; human myeloma cells, 3 days, concentration required for 50% cell death. The procedure: Example B1: KMS.12.BM Cell Viability Assay
KMS.12.BM cell line (human myeloma) was purchased from JCRB (Osaka, Japan) and maintained in RPMI with 10% FBS culture medium. To measure the cytotoxic activity of the compounds through ATP quantitation, the KMS.12.BM cells are plated in the RPMI culture medium at 5000 cells/well/per 100 μL into a 96-well polystyrene clear black tissue culture plate (Greiner-bio-one through VWR, NJ), in the presence or absence of a concentration range of test compounds. After 3 days, […] Cell Titer-GLO Luminescent (Promega, Madison, Wis.) cell culture agent is added to each well for 10 minutes at room temperature to stabilize the luminescent signal. This determines the number of viable cells in culture based on quantitation of the ATP present, which signals the presence of metabolically active cells. Luminescence is measured with the Top Count 384 (Packard Bioscience through Perkin Elmer, Boston, Mass.). Compound inhibition is determined relative to cells cultured with no drug and the IC50 is reported as the compound concentration required for 50% cell death.
Background: Cellular ATP, detected with luciferase, serves as a proxy for viable cell number.
On to `Cn1cc(-c2cc(S(C)(=O)=O)cc3c2OC2(CC2)C(=O)N3)c2cc[nH]c2c1=O` [Example 57, 8-(6-methyl-7-oxo-6,7-dihydro-1H-pyrrolo[2,3-c]pyridin-4-yl)-6-(methylsulfonyl)spiro[1,4-benzoxazine-2,1′-cyclopropan]-3(4H)-one], for which the IC50 is at most 1 µM. As to `CNC(=O)c1cc2c(c(-c3cn(C)c(=O)c4[nH]ccc34)c1)OC(C(C)C)C(=O)N2` (stereo not drawn) [Example 20, 2-isopropyl-N-methyl-8-(6-methyl-7-oxo-6,7-dihydro-1H-pyrrolo[2,3-c]pyridin-4-yl)-3-oxo-3,4-dihydro-2H-1,4-benzoxazine-6-carboxamide], the IC50 was at most 1 µM. `CC(C)C1Oc2c(cc(C(N)=O)cc2-c2cn(C)c(=O)c3[nH]ccc23)NC1=O` (stereo not drawn) [Example 41, 2-isopropyl-8-(6-methyl-7-oxo-6,7-dihydro-1H-pyrrolo[2,3-c]pyridin-4-yl)-3-oxo-3,4-dihydro-2H-1,4-benzoxazine-6-carboxamide] returned an IC50 of at most 1 µM. Next, `CC(C)C1Oc2c(-c3cn(C)c(=O)c4[nH]ccc34)cc(S(C)(=O)=O)cc2N(CC2CC2)C1=O` (stereo not drawn) [Example 53, 4-(cyclopropylmethyl)-2-isopropyl-8-(6-methyl-7-oxo-7-dihydro-1H-pyrrolo[2,3-c]pyridin-4-yl)-6-(methylsulfonyl)-2H-1,4-benzoxazin-3(4H)-one]: at most 1 µM; `CC(C)C1Oc2c(cc(CO)cc2-c2cn(C)c(=O)c3[nH]ccc23)NC1=O` (stereo not drawn) [Example 36, 6-(hydroxymethyl)-2-isopropyl-8-(6-methyl-7-oxo-6,7-dihydro-1H-pyrrolo[2,3-c]pyridin-4-yl)-2H-1,4-benzoxazin-3(4H)-one]: at most 1 µM. Next, `COc1cc2c(c(-c3cn(C)c(=O)c4[nH]ncc34)c1)OC(C1CCCC1)C(=O)N2` (stereo not drawn) [Example 42, 2-Cyclopentyl-6-methoxy-8-(6-methyl-7-oxo-6,7-dihydro-1H-pyrazolo[3,4-c]pyridin-4-yl)-2H-1,4-benzoxazin-3(4H)-one]: at most 1 µM; `CN1C(=O)C2(CC2)Oc2c(-c3cn(C)c(=O)c4[nH]ccc34)cc(S(C)(=O)=O)cc21` [Example 63, 4-methyl-8-(6-methyl-7-oxo-6,7-dihydro-1H-pyrrolo[2,3-c]pyridin-4-yl)-6-(methylsulfonyl)spiro[1,4-benzoxazine-2,1′-cyclopropan]-3(4H)-one]: at most 1 µM. Next, `COCc1cc2c(c(-c3cn(C)c(=O)c4[nH]ccc34)c1)OC(C(C)C)C(=O)N2` (stereo not drawn) [Example 37, 2-isopropyl-6-(methoxymethyl)-8-(6-methyl-7-oxo-6,7-dihydro-1H-pyrrolo[2,3-c]pyridin-4-yl)-2H-1,4-benzoxazin-3(4H)-one]: at most 1 µM; `Cn1cc(-c2cccc3c2OC(C2CC2)C(=O)N3)c2cc[nH]c2c1=O` (stereo not drawn) [Example 6, 2-cyclopropyl-8-(6-methyl-7-oxo-6,7-dihydro-1H-pyrrolo[2,3-c]pyridin-4-yl)-2H-1,4-benzoxazin-3(4H)-one]: at most 1 µM. The compound `CC(C)C1Oc2c(-c3cn(C)c(=O)c4[nH]ccc34)cc(S(C)(=O)=O)cc2N(C)C1=O` (single isomer, unassigned) [Example 47A, 2-isopropyl-4-methyl-8-(6-methyl-7-oxo-6,7-dihydro-1H-pyrrolo[2,3-c]pyridin-4-yl)-6-(methylsulfonyl)-2H-1,4-benzoxazin-3(4H)-one] had an IC50 of at most 1 µM. The value for `CCS(=O)(=O)c1cc2c(c(-c3cn(C)c(=O)c4[nH]ccc34)c1)OC(C)(C)C(=O)N2` [Example 78, 6-(ethylsulfonyl)-2,2-dimethyl-8-(6-methyl-7-oxo-6,7-dihydro-1H-pyrrolo[2,3-c]pyridin-4-yl)-2H-1,4-benzoxazin-3(4H)-one] was at most 1 µM; that for `COc1cc(-c2cn(C)c(=O)c3[nH]ccc23)c2c(c1)N(CC(N)=O)C(=O)C(C(C)C)O2` (stereo not drawn) [Example 13, 2-[2-isopropyl-6-methoxy-8-(6-methyl-7-oxo-6,7-dihydro-1H-pyrrolo[2,3-c]pyridin-4-yl)-3-oxo-2,3-dihydro-4H-1,4-benzoxazin-4-yl]acetamide] was at most 1 µM.

The record behind these values is US10472358B2, “1H-pyrrolo[2,3-c]pyridin-7(6H)-ones and pyrazolo[3,4-c]pyridin-7(6H)-ones as inhibitors of BET proteins” (Incyte Corporation, priority 2014, dated 2019).
